Source: US6147077A, “2R,4S-hydroxyitraconazole isomers” (priority 1999, dated 2000)
In brackets after ≈: the same amount, converted by molar mass. Entries after “also recorded” stand apart in the source; their conditions may differ. Like-named read-outs stand apart in the source and are kept apart here.

Key:
Sacchromyces cerevisae = assay: Kirby-Bauer Testing, Saccharomyces cerevisiae; type: cell-based; conditions: Saccharomyces cerevisiae, 10 μl of 10 mg/mL per disk, 30° C., 16 hours
Description: The hydroxyitraconazole isomers were tested for biological activity according three different assays.
Actively growing cultures of Candida albicans, Cryptococcus neoformens and Saccharomyces cerevisiae were prepared as described above. The cultures were diluted to a 0.5 McFarland standard and swabbed onto a 150 mm Sabouraud Dextrose agar plates. Paper disks (7 mm) were placed onto the agar plates using a disk dispenser. […] The plates were then incubated at 30° C. for 16 hours. Zones of inhibition were then measured in mm.

Candida albicans [1] = assay: Antifungal MIC, Candida albicans; type: cell-based; conditions: Candida albicans
Description: (§1) A 10 mL tube containing 4 mL of Sabourauds dextrose broth was inoculated with 1 colony of Candida albicans picked from a plate of pure culture. The strain was ordered from the American Type Culture Collection (ATCC). The organism was grown for 4 hours at 30° C. while shaking at 150 RPM. While the organism was growing, samples of hydroxy-itraconazoles were solubilized to a concentration of 10 mg/mL in DMSO. Each sample was then diluted 1:10 to make 1 mg/mL samples or 1000 μg/mL. These samples were then diluted by serial 2-fold dilutions to produce samples now containing 1000, 500, 250, 125, 62.5, 31.25, 15.6 μg/mL. […] At 4 hours of growth time the Candida albicans was diluted to a 0.5 McFarland standard representing about 10^5 -10^6 cells/mL and 1 μL of this inoculum placed into each test well of the microtiter dish. The dish was then covered and incubated at 30° C. for 16 hours.

[2] = Water solubility of hydroxyitraconazole isomers and itraconazole; type: physicochemical
Description: The isomers of cis hydroxyitraconazole were tested for water solubility against a […] standard solution of hydroxyitraconazole. […] The values for 3+4 and 11+12 are barely above the LOD, giving accuracies of ±10%. In every case, solubilities were in the 10^1 to 10^2 ng/ml range.

[3] = cited from earlier work
[4] = cited from earlier work; remark: listed apart in the source
fungi and bacteria = conditions: cited from earlier work
synthesis of ergosterol = conditions: cited from earlier work
Candida albicans [5] = assay: Kirby-Bauer Testing, Candida albicans; type: cell-based; conditions: 10 μl of 10 mg/mL per disk, 30° C., 16 hours
Description: The hydroxyitraconazole isomers were tested for biological activity according three different assays. Table 2 summarizes the results of Kirby-Bauer Testing against three actively growing cultures: Candida albicans, Cryptococcus neoformens and Saccromyces cerevisiae. […] A 10 mL tube containing 4 mL of Sabourauds dextrose broth was inoculated with 1 colony of Candida albicans picked from a plate of pure culture. The strain was ordered from the American Type Culture Collection (ATCC). The organism was grown for 4 hours at 30° C. while shaking at 150 RPM. While the organism was growing, samples of hydroxy-itraconazoles were solubilized to a concentration of 10 mg/mL in DMSO. Each sample was then diluted 1:10 to make 1 mg/mL samples or 1000 μg/mL. […] A 96-well microtiter dish was set up with 98 μL of liquid growth media in each test well, along with 1 μL of hydroxy-itraconazole solution. At 4 hours of growth time the Candida albicans was diluted to a 0.5 McFarland standard representing about 10^5 -10^6 cells/mL and 1 μL of this inoculum placed into each test well of the microtiter dish. The dish was then covered and incubated at 30° C. for 16 hours. Actively growing cultures of Candida albicans, Cryptococcus neoformens and Saccharomyces cerevisiae were prepared as described above. […] Zones of inhibition were then measured in mm.

Cryptococcus neoformens = assay: Kirby-Bauer Testing, Cryptococcus neoformens; type: cell-based; conditions: 10 μl of 10 mg/mL per disk, 30° C., 16 hours
Description: The hydroxyitraconazole isomers were tested for biological activity according three different assays. Table 2 summarizes the results of Kirby-Bauer Testing against three actively growing cultures: Candida albicans, Cryptococcus neoformens and Saccromyces cerevisiae.
Actively growing cultures of Candida albicans, Cryptococcus neoformens and Saccharomyces cerevisiae were prepared as described above. The cultures were diluted to a 0.5 McFarland standard and swabbed onto a 150 mm Sabouraud Dextrose agar plates. Paper disks (7 mm) were placed onto the agar plates using a disk dispenser. Next 10 μl of 10 mg/mL solutions of each sample hydroxy-itraconazole was pipetted onto separate paper disks. The plates were then incubated at 30° C. for 16 hours. Zones of inhibition were then measured in mm.

Aspergillis = assay: Kirby-Bauer Testing, Aspergillis; type: cell-based; conditions: 16 h, 10 μl of 10 mg/mL per disk
Cr. neoformens = assay: Antifungal MIC, Cr. neoformens; type: cell-based, Cryptococcus neoformens; conditions: Cryptococcus; Cr. neoformens (Table 3)
Description: [The source words this procedure for another organism and reports this organism under the same test.] as §1

S. cerevisae = assay: Antifungal MIC, S. cerevisae; type: cell-based, Saccharomyces cerevisiae; conditions: Saccharomyces cerevisiae; S. cerevisae (Table 3)
Description: [The source words this procedure for another organism and reports this organism under the same test.] as §1

A. fumigatis = assay: Antifungal MIC, A. fumigatis; type: cell-based; conditions: A. fumigatis (Table 3)
Description: [The source words this procedure for another organism and reports this organism under the same test.] as §1

[6] = Water solubility of hydroxyitraconazole phosphate isomers (NMG salts); type: physicochemical; conditions: water; Table 8
From the text: The water solubility of the NMG salts of the phosphate esters of isomers 1, 2 and 3+4 were investigated and compared to the corresponding hydroxyitraconazole isomers 1, 2 and 3+4. The phosphate esters were as much as 10^7 times more water soluble than the corresponding hydroxyitraconazole isomer.

cytochrome P450 3A4 [7] = biological target: T1, cytochrome P450 3A4 (Homo sapiens, UniProt P08684)
T1 sequence (P08684 whole entry): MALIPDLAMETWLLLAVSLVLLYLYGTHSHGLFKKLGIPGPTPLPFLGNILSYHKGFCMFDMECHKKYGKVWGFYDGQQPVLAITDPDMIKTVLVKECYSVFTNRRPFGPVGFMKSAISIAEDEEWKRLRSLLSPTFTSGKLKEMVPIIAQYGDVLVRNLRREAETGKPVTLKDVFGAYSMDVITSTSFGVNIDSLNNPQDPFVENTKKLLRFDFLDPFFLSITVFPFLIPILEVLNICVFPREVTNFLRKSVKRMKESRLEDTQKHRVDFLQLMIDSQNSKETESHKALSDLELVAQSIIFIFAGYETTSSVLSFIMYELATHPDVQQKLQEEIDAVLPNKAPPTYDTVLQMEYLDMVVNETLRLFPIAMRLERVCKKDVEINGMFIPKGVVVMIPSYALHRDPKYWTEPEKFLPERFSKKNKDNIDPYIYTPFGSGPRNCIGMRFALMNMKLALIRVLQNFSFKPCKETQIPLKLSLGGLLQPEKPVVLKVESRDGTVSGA
Description: (§2) The IC50 values were determined by the appearance of 6β-hydroxytestosterone after incubation with testosterone. […] Of greater clinical significance is the ratio of the IC50 for 3A4 to the MIC for C. albicans 44203.

cytochrome P450 3A4 [8] = biological target: T1, cytochrome P450 3A4; assay: Inhibition of cytochrome P450 3A4 (testosterone 6β-hydroxylase activity)
Description: as §2

SMILES: CCC(C)n1ncn(-c2ccc(N3CCN(c4ccc(OC[C@H]5CO[C@](Cn6cncn6)(c6ccc(Cl)cc6Cl)O5)cc4)CC3)cc2)c1=O (relative stereo) [itraconazole, 4-[4-[4-[4-[[2-(2,4-dichlorophenyl)-2-(1H-1,2,4-triazol-1-ylmethyl)-1,3-dioxolan-4-yl]methoxy]phenyl]-1-piperazinyl]phenyl]-2,4-dihydro-2-(1-methylpropyl)-3H-1,2,4-triazol-3-one]
- zone of inhibition at 10000 µg/mL (Sacchromyces cerevisae): 15 mm
- MIC (Candida albicans [1]): 0.06 µg/mL (≈ 0.085 µM)
- Water solubility ([2]; LOD: 5000 μV*sec, order-of-magnitude accuracy below LOD, 3+4 and 11+12 ±10%, listed as Itraconazole): such low water solubility that it could not be determined by this method
- Water solubility ([2]; LOD: 5000 μV*sec, order-of-magnitude accuracy below LOD, 3+4 and 11+12 ±10%, listed as ±Itraconazole): not detected
- Urinary excretion of metabolites ([3]; in most subjects): no metabolites are excreted in the urine
- Absorption following oral administration ([3]; oral): slowly absorbed
- Pharmacokinetic behavior ([3]; oral): nonlinear
- Adverse effects ([4]; administration of itraconazole): hepatotoxicity and inhibition of drug metabolism in the liver; also recorded: Hypersensitivity reactions including urticaria and elevations in serum liver enzymes
- Torsades de Pointes ([4]; racemic itraconazole concurrently with terfenadine): Torsades de Pointes, has been reported
- Effect of serum on antifungal activity (fungi and bacteria; Sabouraud broth containing 10% inactivated bovine serum): enhanced in vitro
- Inhibition of growth (fungi and bacteria; Sabouraud broth, 14 days, Microsporum canis, Trichophyton mentagrophytes, Candida albicans, Aspergillus spp. and others): Complete or marked inhibition of growth
- Effect on synthesis of ergosterol (synthesis of ergosterol): impairs the synthesis of ergosterol

SMILES: C[C@@H](O)[C@H](C)n1ncn(-c2ccc(N3CCN(c4ccc(OC[C@H]5CO[C@](Cn6cncn6)(c6ccc(Cl)cc6Cl)O5)cc4)CC3)cc2)c1=O [Compound 1]
- zone of inhibition at 10000 µg/mL (Candida albicans [5]): 22 mm
- zone of inhibition at 10000 µg/mL (Cryptococcus neoformens): 28 mm
- zone of inhibition at 10000 µg/mL (Aspergillis): 27 mm
- zone of inhibition at 10000 µg/mL (Sacchromyces cerevisae): 22 mm
- MIC (Candida albicans [1]; C. albicans strain 10231 (Table 3), read-out: Antifungal MIC): 1 µg/mL (≈ 1.39 µM)
- MIC (Candida albicans [1]; C. albicans strain 28516 (Table 3), read-out: Antifungal MIC): 0.25 µg/mL (≈ 0.346 µM)
- MIC (Candida albicans [1]; C. albicans strain 28815 (Table 3), read-out: Antifungal MIC): 0.125 µg/mL (≈ 0.173 µM)
- MIC (Candida albicans [1]; C. albicans strain 44203 (Table 3), read-out: Antifungal MIC): 0.05 µg/mL (≈ 0.0693 µM)
- MIC (Candida albicans [1]; C. albicans strain 44373 (Table 3), read-out: Antifungal MIC): 0.5 µg/mL (≈ 0.693 µM)
- MIC (Candida albicans [1]; C. albicans strain 62342 (Table 3), read-out: Antifungal MIC): 0.5 µg/mL (≈ 0.693 µM)
- MIC (Candida albicans [1]; Candida albicans strain 44203 (Table 4), read-out: MIC): 0.05 µg/mL (≈ 0.0693 µM)
- MIC (Cr. neoformens): 0.39 µg/mL (≈ 0.54 µM)
- MIC (S. cerevisae): 0.195 µg/mL (≈ 0.27 µM)
- MIC (A. fumigatis): 0.137 µg/mL (≈ 0.19 µM)
- solubility ([2]; water, LOD: 5000 μV*sec, order-of-magnitude accuracy below LOD, 3+4 and 11+12 ±10%): 0.051 µg/mL (≈ 0.0707 µM)
- Area ([2]; λmax = 260 nm, LOD 5000 μV*sec): 1499 μV*sec
- solubility [6]: 0.051 µg/mL
- Inhibition of P450 3A4 in words (cytochrome P450 3A4 [7]): notably less inhibition of the P450 3A4 enzyme than the 2S,4R isomers
- IC50 (cytochrome P450 3A4 [8]): 2800 nM
- selectivity ratio (cytochrome P450 3A4 [8]): 56
- IC50/MIC ratio in words (cytochrome P450 3A4 [8]; therapeutic index, 3A4 vs C. albicans 44203): excellent results
